Data on 25 molecules can be found in patent publication US10246429B2, “Vinyl fluoride cyclopropyl fused thiazin-2-amine compounds as beta-secretase inhibitors and methods of use” (AMGEN INC., priority 2015, dated 2019).

What is called IC50 is the midpoint of a concentration-inhibition curve.

In assay [1] the target is BACE2 (Homo sapiens (Human), UniProt Q9Y5Z0). Kind of assay: In vitro enzymatic BACE2 FRET assay. It is filed as biochemical. As to conditions: read-out: IC50 IP (μM) BACE2 Enzyme.
BACE2, sequence (Q9Y5Z0 63-518): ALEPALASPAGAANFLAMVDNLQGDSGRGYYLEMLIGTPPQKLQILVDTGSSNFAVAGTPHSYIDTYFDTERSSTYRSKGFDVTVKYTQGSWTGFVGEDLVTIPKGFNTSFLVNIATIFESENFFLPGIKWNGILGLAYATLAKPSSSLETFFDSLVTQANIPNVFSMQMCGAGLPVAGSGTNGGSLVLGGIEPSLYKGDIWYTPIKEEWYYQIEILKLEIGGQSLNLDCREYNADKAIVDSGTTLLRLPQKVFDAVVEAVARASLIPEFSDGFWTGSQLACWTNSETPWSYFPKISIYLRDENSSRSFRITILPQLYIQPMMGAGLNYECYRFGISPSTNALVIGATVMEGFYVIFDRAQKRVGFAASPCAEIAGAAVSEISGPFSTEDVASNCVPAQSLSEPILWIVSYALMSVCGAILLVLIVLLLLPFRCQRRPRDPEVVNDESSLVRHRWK
Source text: (§1) In Vitro Enzymatic BACE1 and BACE2 FRET (Fluorescence Resonance Energy Transfer) Assays (Enzyme Assay Data in Table 1)
Assay [2] deals with T1, BACE1 (Homo sapiens (Human), UniProt P56817). The assay is described as follows: BACE1 cell assay. It is filed as cell-based.
Target sequence in this assay (P56817 46-501, species assumed): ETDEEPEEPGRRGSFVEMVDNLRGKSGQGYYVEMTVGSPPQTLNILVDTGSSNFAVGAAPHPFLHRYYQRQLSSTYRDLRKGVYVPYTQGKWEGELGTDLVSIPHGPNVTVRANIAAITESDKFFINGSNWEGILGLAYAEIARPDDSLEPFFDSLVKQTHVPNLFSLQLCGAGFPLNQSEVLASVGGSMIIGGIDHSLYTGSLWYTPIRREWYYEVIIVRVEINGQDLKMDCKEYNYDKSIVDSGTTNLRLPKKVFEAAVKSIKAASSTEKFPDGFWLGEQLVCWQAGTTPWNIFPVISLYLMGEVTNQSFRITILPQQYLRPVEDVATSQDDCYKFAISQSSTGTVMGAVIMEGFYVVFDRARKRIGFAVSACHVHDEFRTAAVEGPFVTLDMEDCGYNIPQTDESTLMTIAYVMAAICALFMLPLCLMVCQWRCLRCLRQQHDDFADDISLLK
The target in assay [3] is T1, BACE1. The assay is described as follows: In vitro enzymatic BACE1 FRET assay. It is filed as biochemical. The settings on record: read-out: IC50 IP (μM) BACE1 Enzyme.
Target sequence in this assay (P56817 46-501): as the sequence (P56817 46-501, species assumed) above
Source text: as §1
For assay [4], the target named is Cathepsin D (CatD) (Homo sapiens (Human), UniProt P07339). Kind of assay: CatD assay. It is filed as biochemical. As to conditions: read-out: IC50 IP (μM) CatD.
Cathepsin D (CatD), sequence (P07339 65-412, species assumed): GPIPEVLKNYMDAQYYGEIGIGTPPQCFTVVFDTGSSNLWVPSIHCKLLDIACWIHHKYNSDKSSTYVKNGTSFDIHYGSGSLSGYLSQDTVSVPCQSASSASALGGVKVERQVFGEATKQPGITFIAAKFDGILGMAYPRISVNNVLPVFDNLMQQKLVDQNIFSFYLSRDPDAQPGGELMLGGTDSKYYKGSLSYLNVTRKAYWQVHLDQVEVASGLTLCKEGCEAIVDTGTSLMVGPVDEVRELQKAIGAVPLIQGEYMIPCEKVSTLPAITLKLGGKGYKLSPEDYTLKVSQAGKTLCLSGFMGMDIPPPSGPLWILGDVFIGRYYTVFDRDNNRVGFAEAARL
[5] abbreviates: read-out: IC50 IP (μM) BACE1 Cell.

Molecules are shown by their SMILES.

With `C[C@]1(c2cc(/C=C(\F)c3ccc(C#N)cn3)ccc2F)N=C(N)S[C@@]2(C(=O)N3CCO[C@@H]4C[C@@H]43)C[C@H]21` (single isomer, unassigned) [Example 312], the half-maximal inhibitory concentration (IC50) in assay [1] is 0.068 µM; in assay [2] (setting [5]) it was 0.0008 µM; in assay [3], 0.0012 µM.

For `C[C@]1(c2cc(/C=C(\F)c3ccc(C#N)cn3)ccc2F)N=C(N)S[C@@]2(C(=O)N3CC[C@H](O)C3)C[C@H]21` [Example 125, 6-((Z)-2-(3-((1S,5S,6S)-3-amino-1-((S)-3-hydroxypyrrolidine-1-carbonyl)-5-methyl-2-thia-4-azabicyclo[4.1.0]hept-3-en-5-yl)-4-fluorophenyl)-1-fluorovinyl)nicotinonitrile], the figures for the IC50 in assay [1], in assay [2] (setting [5]) and in assay [3] were 0.0364 µM, 0.000986 µM and 0.000592 µM, respectively.

As to `COC(=O)[C@]12C[C@H]1[C@@](C)(c1cc(/C=C(\F)c3cnc(Cl)cn3)ccc1F)N=C(N)S2` [Example 149, (1S,5S,6S)-methyl 3-amino-5-(5-((Z)-2-(5-chloropyrazin-2-yl)-2-fluorovinyl)-2-fluorophenyl)-5-methyl-2-thia-4-azabicyclo[4.1.0]hept-3-ene-1-carboxylate], the results for the IC50 in assay [1], in assay [2] (setting [5]) and in assay [3] were 0.206 µM, 0.883 µM and 0.0352 µM, respectively.

`COc1ncc(/C=C(\F)c2ccc(C#N)cn2)cc1[C@@]1(C)N=C(N)S[C@@]2(C(=O)N3CC[C@@H](F)C3)C[C@H]21` [Example 184, 6-((Z)-2-(5-((1S,5S,6S)-3-amino-1-((R)-3-fluoropyrrolidine-1-carbonyl)-5-methyl-2-thia-4-azabicyclo[4.1.0]hept-3-en-5-yl)-6-methoxypyridin-3-yl)-1-fluorovinyl)nicotinonitrile]: the half-inhibitory concentration (IC50) is 0.34 µM in assay [1], 0.014 µM in assay [2] (setting [5]) and 125 µM in assay [4].

Take `C[C@]1(c2cc(/C=C(\F)c3cnc(C#N)cn3)ccc2F)N=C(N)S[C@@]2(C(=O)N3CCOCC3)C[C@H]21` [Example 200, 5-((Z)-2-(3-((1S,5S,6S)-3-amino-5-methyl-1-(morpholine-4-carbonyl)-2-thia-4-azabicyclo[4.1.0]hept-3-en-5-yl)-4-fluorophenyl)-1-fluorovinyl)pyrazine-2-carbonitrile]: the IC50 in assay [2] was 0.004 µM; in assay [3] it was 0.001 µM.

In assay [2], `CNC(=O)[C@]12C[C@H]1[C@@](C)(c1cc(/C=C(\F)c3cc4c(cn3)OCCO4)ccc1F)N=C(N)S2` [Example 249, (1S,5S,6S)-3-amino-5-(5-((Z)-2-(2,3-dihydro-[1,4]dioxino[2,3-c]pyridin-7-yl)-2-fluorovinyl)-2-fluorophenyl)-N,5-dimethyl-2-thia-4-azabicyclo[4.1.0]hept-3-ene-1-carboxamide] registered an IC50 of 0.336 µM.

For the molecule `C[C@]1(c2cc(/C=C(\F)c3cnc(C#N)cn3)ccc2F)N=C(N)S[C@]2(CO)[C@H]1C2(F)F` [Example 254, 5-((Z)-2-(3-((1S,5S,6R)-3-amino-7,7-difluoro-1-(hydroxymethyl)-5-methyl-2-thia-4-azabicyclo[4.1.0]hept-3-en-5-yl)-4-fluorophenyl)-1-fluorovinyl)pyrazine-2-carbonitrile trifluoromethyl acetate], the IC50 in assay [2] (setting [5]) came to 0.0894 µM.

Take `C#CCOc1cnc(/C(F)=C/c2ccc(F)c([C@@]3(C)N=C(N)S[C@@]4(COC)C[C@H]43)c2)cn1` [Example 262, (1S,5S,6S)-5-(2-fluoro-5-((Z)-2-fluoro-2-(5-(prop-2-yn-1-yloxy)pyrazin-2-yl)vinyl)phenyl)-1-(methoxymethyl)-5-methyl-2-thia-4-azabicyclo[4.1.0]hept-3-en-3-amine]: the values for the half-maximal inhibitory concentration (IC50) in assay [1] and in assay [4] were 0.694 µM and 317 µM, respectively.

On to `CC#CCOc1cnc(/C(F)=C/c2ccc(F)c([C@@]3(C)N=C(N)S[C@@]4(COC)C[C@H]43)c2)cn1` [Example 263], for which the half-maximal inhibitory concentration (IC50) in assay [1] is 1.84 µM; in assay [4], 492 µM.

For the molecule `COC[C@]12C[C@H]1[C@@](C)(c1cc(/C=C(\F)c3cnc(OC[C@H](C)OC)cn3)ccc1F)N=C(N)S2` [Example 265], the half-maximal inhibitory concentration (IC50) in assay [1] is 3.86 µM; in assay [4], 1320 µM.

Turning to `COC[C@]12C[C@H]1[C@@](C)(c1cc(/C=C(\F)c3cnc(OCCC(F)(F)F)cn3)ccc1F)N=C(N)S2` [Example 268], the IC50 in assay [1] amounted to 1.55 µM; in assay [4], 245 µM.

As to `COC[C@]12C[C@H]1[C@@](C)(c1cc(/C=C(\F)c3cnc(OCC4CCC4)cn3)ccc1F)N=C(N)S2` [Example 271], the values for the concentration for half-maximal inhibition (IC50) in assay [1] and in assay [4] were 1.84 µM and 120 µM, respectively.

Turning to `COC[C@]12C[C@H]1[C@@](C)(c1cc(/C=C(\F)c3cnc(OCC4CCO4)cn3)ccc1F)N=C(N)S2` (stereo partly shown) [Example 273], the results for the half-maximal inhibitory concentration (IC50) in assay [1] and in assay [4] were 5.11 µM and 647 µM, respectively.

On to `COC[C@]12C[C@H]1[C@@](C)(c1cc(/C=C(\F)c3cnc(OCc4cc(C)no4)cn3)ccc1F)N=C(N)S2` [Example 276], for which the IC50 in assay [1] came out at 0.966 µM; in assay [4], 156 µM.

As for `COC[C@]12C[C@H]1[C@@](C)(c1cc(/C=C(\F)c3cnc(OC(C)C(F)(F)F)cn3)ccc1F)N=C(N)S2` (stereo partly shown) [Example 277], the concentration for half-maximal inhibition (IC50) amounted to 2.42 µM in assay [1] and 207 µM in assay [4].

Consider `COC[C@]12C[C@H]1[C@@](C)(c1cc(/C=C(\F)c3cnc(OCC4CC(F)(F)C4)cn3)ccc1F)N=C(N)S2` [Example 278], for which the values for the IC50 in assay [1] and in assay [4] were 1.32 µM and 199 µM, respectively.

On to `CN(C)C(=O)[C@]12C[C@H]1[C@@](C)(c1cc(/C=C(\F)c3cnc(OCC(F)(F)F)cn3)cnc1F)N=C(N)S2` [Example 282, (1S,5S,6S)-3-amino-5-(2-fluoro-5-((Z)-2-fluoro-2-(5-(2,2,2-trifluoroethoxy)pyrazin-2-yl)vinyl)pyridin-3-yl)-N,N,5-trimethyl-2-thia-4-azabicyclo[4.1.0]hept-3-ene-1-carboxamide], for which the IC50 amounted to 0.125 µM in assay [1] and 287 µM in assay [4].

For `C#CCOc1cnc(/C(F)=C/c2cnc(F)c([C@@]3(C)N=C(N)S[C@@]4(C(=O)O)C[C@H]43)c2)cn1` [Example 285, (1S,5S,6S)-3-amino-5-(2-fluoro-5-((Z)-2-fluoro-2-(5-(prop-2-yn-1-yloxy)pyrazin-2-yl)vinyl)pyridin-3-yl)-5-methyl-2-thia-4-azabicyclo[4.1.0]hept-3-ene-1-carboxylic acid], the values for the concentration for half-maximal inhibition (IC50) in assay [1] and in assay [4] were 6.35 µM and 316 µM, respectively.

As for `CC(=O)COc1cnc(/C(F)=C/c2cnc(F)c([C@@]3(C)N=C(N)S[C@@]4(C(=O)N(C)C)C[C@H]43)c2)cn1` [Example 288, (1S,5S,6S)-3-amino-5-(2-fluoro-5-((Z)-2-fluoro-2-(5-(2-oxopropoxy)pyrazin-2-yl)vinyl)pyridin-3-yl)-N,N,5-trimethyl-2-thia-4-azabicyclo[4.1.0]hept-3-ene-1-carboxamide], the IC50 in assay [1] worked out at 0.294 µM; in assay [4], 175 µM.

For `C[C@@H]1COCCN1C(=O)[C@]12C[C@H]1[C@@](C)(c1cc(/C=C(\F)c3ccc(C#N)cn3)cnc1F)N=C(N)S2` [Example 290, 6-((Z)-2-(5-((1S,5S,6S)-3-amino-5-methyl-1-((R)-3-methylmorpholine-4-carbonyl)-2-thia-4-azabicyclo[4.1.0]hept-3-en-5-yl)-6-fluoropyridin-3-yl)-1-fluorovinyl)nicotinonitrile], the IC50 in assay [1] worked out at 0.229 µM; in assay [4], 400 µM.

For `COC[C@]12C[C@H]1[C@@](C)(c1cc(/C=C(\F)c3ccc(C#N)cn3)ccc1F)N=C(N)S2` [Example 293, 6-((Z)-2-(3-((1S,5S,6S)-3-amino-1-(methoxymethyl)-5-methyl-2-thia-4-azabicyclo[4.1.0]hept-3-en-5-yl)-4-fluorophenyl)-1-fluorovinyl)nicotinonitrile], the concentration for half-maximal inhibition (IC50) stood at 0.192 µM in assay [1], 0.0165 µM in assay [3] and 400 µM in assay [4].

In assay [2], `C[C@]1(c2cc(/C=C(\F)c3ccc(C#N)cn3)cnc2F)N=C(N)S[C@@]2(C(=O)N3[C@H]4COC[C@@H]3COC4)C[C@H]21` [Example 298, 6-((Z)-2-(5-((1S,5S,6S)-3-amino-1-((1R,5R)-3,7-dioxa-9-azabicyclo[3.3.1]nonane-9-carbonyl)-5-methyl-2-thia-4-azabicyclo[4.1.0]hept-3-en-5-yl)-6-fluoropyridin-3-yl)-1-fluorovinyl)nicotinonitrile] registered an IC50 of 0.0173 µM.

Turning to `C[C@]1(O)CCN(C(=O)[C@]23C[C@H]2[C@@](C)(c2cc(/C=C(\F)c4ccc(C#N)cn4)ccc2F)N=C(N)S3)C1` [Example 309, 6-((Z)-2-(3-((1S,5S,6S)-3-amino-1-((S)-3-hydroxy-3-methylpyrrolidine-1-carbonyl)-5-methyl-2-thia-4-azabicyclo[4.1.0]hept-3-en-5-yl)-4-fluorophenyl)-1-fluorovinyl)nicotinonitrile], the 50% inhibitory concentration (IC50) in assay [1] was found to be 0.007 µM; in assay [4], 401 µM.

For `C[C@]1(c2cc(/C=C(\F)c3cnc(N4CCC4)cn3)ccc2F)N=C(N)S[C@@]2(C(=O)N3CCOCC3)C[C@H]21` [Example 351, ((1S,5S,6S)-3-amino-5-(5-((Z)-2-(5-(azetidin-1-yl)pyrazin-2-yl)-2-fluorovinyl)-2-fluorophenyl)-5-methyl-2-thia-4-azabicyclo[4.1.0]hept-3-en-1-yl)(morpholino)methanone], the IC50 in assay [1] was determined as 1.56 µM; in assay [4], 52.6 µM.

Take `CNC(=O)[C@]12C[C@H]1[C@@](C)(c1cc(/C=C(\F)c3ccc(C#CC(C)(C)C)cn3)ccc1F)N=C(N)S2` [Example 359, (1S,5S,6S)-3-amino-5-(5-((Z)-2-(5-(3,3-dimethylbut-1-yn-1-yl)pyridin-2-yl)-2-fluorovinyl)-2-fluorophenyl)-N,5-dimethyl-2-thia-4-azabicyclo[4.1.0]hept-3-ene-1-carboxamide]: the values for the IC50 in assay [1] and in assay [4] were 0.794 µM and 26 µM, respectively.
